Data set [1] is described as follows: Pharmacokinetic study in minipigs after i.v. administration. The class given is in vivo, Göttingen minipigs. The conditions noted are these: iv, minipig. The method, then:
The purpose of this study is to determine the pharmacokinetic (PK) profile in vivo of a prodrug of the invention (Example 4) and the corresponding parent drug (Example B2.2) after i.v. administration to minipigs, e.g. the prolongation of their time in the body and thereby their time of action. This is done in a PK study, where the terminal half-life of the compound in question is determined. By terminal half-life is generally meant the period of time it takes to halve a certain plasma concentration, measured after the initial distribution phase.
Threefemale Göttingen minipigs, obtained from Ellegaard Göttingen Minipigs (Dalmose, Denmark) approximately 6-8 months of age and weighing approximately 16-21 kg (prodrug pig 16.8 kg, drug pigs 21.3 and 21.1 kg), were used in the studies. The minipigs were housed individually and fed restrictedly once daily with SDS minipig diet (Special Diets Services, Essex, UK). […]
The prodrug of Example 4 and the corresponding drug of Example B2.2 were dissolved in 50 mM sodium phosphate, 145 mM sodium chloride, 0.05% polysorbate 80, pH 7.4 to a suitable concentration (for example, 169.6 nmol/ml for the prodrug). […] Individual plasma concentration-time profiles were analyzed by a non-compartmental model in WinNonlin v. […] Also, the resulting terminal half-lives (harmonic mean/h) were determined, if possible. […]

Data set [2] concerns the target T1, human GLP-1 receptor (Homo sapiens, UniProt P43220).
T1 construct: expressed in transfected cells; host or cells: BHK cells, clone FCW467-12A (parent line BHKTS13), membranes
In words: In vitro potency, AlphaScreen cAMP assay on membranes. The data set is classed as biochemical. Conditions: cAMP formation, membranes of BHK467-12A cells. Here is the method:
The purpose of this example is to test the activity, or potency, in vitro of, for example, the GLP-1 parent drugs of the prodrugs of the invention.
Purified plasma membranes from a stable transfected cell line, BHK467-12A (tk-ts13), expressing the human GLP-1 receptor were stimulated with the GLP-1 drug in question, and the potency of cAMP production was measured using the AlphaScreen™ cAMP Assay Kit from Perkin Elmer Life Sciences. The basic principle of The AlphaScreen Assay is a competition between endogenous cAMP and exogenously added biotin-cAMP. The capture of cAMP is achieved by using a specific antibody conjugated to acceptor beads.
A stable transfected cell line and a high expressing clone were selected for screening. The cells were grown at 5% CO2 in DMEM, 10% FCS, 1% Pen/Strep (Penicillin/Streptomycin) and preferably 0.5 (alternatively 1.0 mg/ml) of the selection marker G418.
Cells at approximate 80% confluence were washed twice with PBS and harvested with Versene (aqueous solution of the tetrasodium salt of ethylenediaminetetraacetic acid), centrifuged 5 min at 1000 rpm and the supernatant removed. The additional steps were all made on ice. The cell pellet was homogenised by the Ultrathurax for 20-30 s in 10 ml of Buffer 1 (20 mM Na-HEPES, 10 mM EDTA, pH=7.4), centrifuged 15 min at 20,000 rpm and the pellet resuspended in 10 ml of Buffer 2 (20 mM Na-HEPES, 0.1 mM EDTA, pH=7.4). The suspension was homogenised for 20-30 s and centrifuged 15 min at 20,000 rpm. Suspension in Buffer 2, homogenisation and centrifugation was repeated once and the membranes were resuspended in Buffer 2. The protein concentration was determined and the membranes stored at −80° C. until use.
The assay was performed in flat-bottom 96-well plates (Costar cat. no: 3693). The final volume per well was 50 μl.
AlphaScreen cAMP Assay Kit from Perkin Elmer Life Sciences (cat. No: 6760625M); containing Anti-cAMP Acceptor beads (10 U/μl), Streptavidin Donor beads (10 U/μl) and Biotinylated-cAMP (133 U/μl). […]
On the technique in general: Bead proximity is the source of the signal in Alpha formats.

Data set [3] is described as follows: Prodrug half-life in vitro, plasma method (minipig heparin plasma). The class given is in vitro ADME. Conditions: minipig heparin plasma 800 μL + 200 μL 200 mM phosphate pH 7.4, 37° C.; UPLC_A, or UPLC_B for compounds marked *; read-out: T½ in plasma (converted). The method, then:
The purpose of this example is to test the in vitro half-lives (T½) of the GLP-1 prodrugs of the invention, in comparison to conceptually different prodrugs. In what follows two in vitro methods are described, viz. a method conducted in buffer, and a method conducted in plasma.
The half life of the prodrug (T½) was calculated from the slope of a linear fit to the curve of ln(% prodrug (Y)) as a function of time (t), as follows: Y=÷αt+k Math. 1 T½=ln(2)/α Math. 2 Plasma Method Buffer: 200 mM Phosphate, pH 7.4 at 37° C.
NaH2PO4.2H2O (15.61 g, 100 mmol) was dissolved in milliQ water (approximately 450 mL) and adjusted to pH=7.44 at approximately 20° C. with concentrated NaOH (aq) and 1 M NaOH (aq). Water was added to 500.00 mL.
Serum: Minipig Serum, Heparin-Plasma
Fresh blood was tapped from minipig into 9 mL LH lithium heparin Vacuette tubes from Greiner bio-one (catalogue number 455084). After cooling on ice it was centrifuged (10 min, 4° C., 3000 rpm/1942G) and the supernatant isolated and kept at −18° C. before use.
100 nmol of the compound to be tested was dissolved in 200 μL buffer, added to 800 μL plasma (centrifuged), and incubated at 37° C. Samples (50 μL) were drawn at appropriate intervals into 150 μL absolute EtOH. After a short stirring the sample was centrifuged and the supernatant transferred to the UPLC vial (10 μL injection).
The % parent drug compared to prodrug formed as a function of time was evaluated by UPLC, and the half-life calculated, both in the same way as described above under the Buffer method.

Data set [4] can be described thus: Prodrug half-life in vitro, buffer method. The class given is physicochemical. The conditions noted are these: 25 mM phosphate buffer pH 7.4, 37° C., 1.0 mg/mL; UPLC_A, or UPLC_B for compounds marked *; read-out: T½ in buffer (converted). The procedure, abridged:
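Prodrug incubated at 1.0 mg/mL in 25 mM phosphate buffer (ionic strength 154 mM, pH 7.4) at 37° C, sampled over time. Prodrug and released parent quantified by UPLC peak areas; T½ derived as ln(2)/slope of linear fit of ln(% prodrug) versus time.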

Molecules are shown by their SMILES.

T1 sequence (P43220 24-463): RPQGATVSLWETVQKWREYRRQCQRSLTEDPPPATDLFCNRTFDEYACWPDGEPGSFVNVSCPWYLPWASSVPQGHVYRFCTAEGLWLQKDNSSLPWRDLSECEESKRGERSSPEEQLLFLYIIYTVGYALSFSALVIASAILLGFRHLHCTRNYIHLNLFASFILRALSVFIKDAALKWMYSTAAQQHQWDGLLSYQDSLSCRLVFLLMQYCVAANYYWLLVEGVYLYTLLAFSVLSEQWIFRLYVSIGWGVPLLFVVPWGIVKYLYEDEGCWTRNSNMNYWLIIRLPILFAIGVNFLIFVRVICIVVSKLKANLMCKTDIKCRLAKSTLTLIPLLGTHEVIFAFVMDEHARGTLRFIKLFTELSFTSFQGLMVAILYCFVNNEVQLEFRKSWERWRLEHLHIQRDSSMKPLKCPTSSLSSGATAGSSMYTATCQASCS

Regarding `CC[C@H](C)[C@H](NC(=O)[C@H](Cc1ccccc1)NC(=O)[C@H](CCC(=O)O)NC(=O)[C@H](CCCCNC(=O)COCCOCCNC(=O)COCCOCCNC(=O)CC[C@H](NC(=O)CCCCCCCCCOc1ccc(C(=O)O)cc1)C(=O)O)NC(=O)[C@H](C)NC(=O)[C@H](C)NC(=O)[C@H](CCC(N)=O)NC(=O)CNC(=O)[C@H](CCC(=O)O)NC(=O)[C@H](CC(C)C)NC(=O)[C@H](Cc1ccc(O)cc1)NC(=O)[C@H](CO)NC(=O)[C@H](CO)NC(=O)[C@@H](NC(=O)[C@H](CC(=O)O)NC(=O)[C@H](CO)NC(=O)[C@@H](NC(=O)[C@H](Cc1ccccc1)NC(=O)[C@@H](NC(=O)CNC(=O)[C@H](CCC(=O)O)NC(=O)[C@H](C)NC(=O)[C@@H](O)Cc1c[nH]cn1)[C@@H](C)O)[C@@H](C)O)C(C)C)C(=O)N[C@@H](C)C(=O)N[C@@H](Cc1c[nH]c2ccccc12)C(=O)N[C@@H](CC(C)C)C(=O)N[C@H](C(=O)N[C@@H](CCCNC(=N)N)C(=O)NCC(=O)N[C@@H](CCCNC(=N)N)C(=O)N[C@@H](CCCCNC(=O)COCCOCCNC(=O)COCCOCCNC(=O)CC[C@H](NC(=O)CCCCCCCCCOc1ccc(C(=O)O)cc1)C(=O)O)C(=O)O)C(C)C` [Example B2.2], the half-life in data set [1] (female, Göttingen, plasma, parent drug given i.v. 3 nmol/kg, read-out: Terminal half-life (harmonic mean/h) (converted)) was 37 h. In data set [2], a half-maximal response (EC50) required 460 pM.
Turning to `CC[C@H](C)[C@H](NC)C(=O)N[C@H](C(=O)O[C@@H](Cc1c[nH]cn1)C(=O)N[C@@H](C)C(=O)N[C@@H](CCC(=O)O)C(=O)NCC(=O)N[C@H](C(=O)N[C@@H](Cc1ccccc1)C(=O)N[C@H](C(=O)N[C@@H](CO)C(=O)N[C@@H](CC(=O)O)C(=O)N[C@H](C(=O)N[C@@H](CO)C(=O)N[C@@H](CO)C(=O)N[C@@H](Cc1ccc(O)cc1)C(=O)N[C@@H](CC(C)C)C(=O)N[C@@H](CCC(=O)O)C(=O)NCC(=O)N[C@@H](CCC(N)=O)C(=O)N[C@@H](C)C(=O)N[C@@H](C)C(=O)N[C@@H](CCCCNC(=O)COCCOCCNC(=O)COCCOCCNC(=O)CC[C@H](NC(=O)CCCCCCCCCOc1ccc(C(=O)O)cc1)C(=O)O)C(=O)N[C@@H](CCC(=O)O)C(=O)N[C@@H](Cc1ccccc1)C(=O)N[C@H](C(=O)N[C@@H](C)C(=O)N[C@@H](Cc1c[nH]c2ccccc12)C(=O)N[C@@H](CC(C)C)C(=O)N[C@H](C(=O)N[C@@H](CCCNC(=N)N)C(=O)NCC(=O)N[C@@H](CCCNC(=N)N)C(=O)N[C@@H](CCCCNC(=O)COCCOCCNC(=O)COCCOCCNC(=O)CC[C@H](NC(=O)CCCCCCCCCOc1ccc(C(=O)O)cc1)C(=O)O)C(=O)O)C(C)C)[C@@H](C)CC)C(C)C)[C@@H](C)O)[C@@H](C)O)C(C)C` [Example 4], the half-life was 27.9 h in data set [3]; 68 h in data set [1] (in vivo, prodrug given i.v. 8 nmol/kg, half-life of the released parent drug, estimated from the bell-shaped curve, read-out: apparent terminal half-life of corresponding drug (estimated) (converted)); 58.9 h in data set [4].

(Values after patent US9452225B2, “GLP-1 prodrugs” (Novo Nordisk A/S, priority 2012, dated 2016).)
